ChEMBL document CHEMBL1140243, “Synthesis and SAR of 2,3-diarylpyrrole inhibitors of parasite cGMP-dependent protein kinase as novel anticoccidial agents” (Bioorg Med Chem Lett, 2005)

Assays:
Assay type in all cases: functional
Parameters in all cases: scale not given: the % may be the effect or the level left
Gallus gallus [1] = organism: Gallus gallus; assay: Anticoccidial activity (percent reduction in oocyst production) against Eimeria mivati in chickens at 66 ppm; Range = 50-79 %
Gallus gallus [2] = organism: Gallus gallus; assay: Anticoccidial activity (percent reduction in oocyst production) against Eimeria tenella in chickens at 66 ppm; Range = 50-79 %
Gallus gallus [3] = organism: Gallus gallus; assay: Anticoccidial activity (percent reduction in oocyst production) against Eimeria maxima in chickens at 66 ppm; Range = 50-79 %
Gallus gallus [4] = organism: Gallus gallus; assay: Anticoccidial activity (percent reduction in oocyst production) against Eimeria brunetti in chickens at 66 ppm; Range = 50-79 %
Gallus gallus [5] = organism: Gallus gallus; assay: Anticoccidial activity (percent reduction in oocyst production) against Eimeria necatrix in chickens at 66 ppm; Range = 50-79 %
Gallus gallus [6] = organism: Gallus gallus; assay: Anticoccidial activity (percent reduction in oocyst production) against Eimeria praecox in chickens at 66 ppm; Range = 50-79 %
Gallus gallus [7] = organism: Gallus gallus; assay: Anticoccidial activity (percent reduction in oocyst production) against Eimeria acervulina in chickens at 66 ppm; Range = 50-79 %
Gallus gallus [8] = organism: Gallus gallus; assay: Anticoccidial activity (percent reduction in oocyst production) against Eimeria mitis in chickens at 66 ppm; Range = 50-79 %

Measured: Activity

CC[C@@H](C(=O)[C@@H](C)[C@@H](O)[C@H](C)[C@@H]1O[C@@H]([C@@H](CC)C(=O)O)CC[C@@H]1C)[C@H]1O[C@]2(C=C[C@@H](O)[C@]3(CC[C@@](C)([C@H]4CC[C@](O)(CC)[C@H](C)O4)O3)O2)[C@H](C)C[C@@H]1C [SALINOMYCIN]
<79%: all assays above
